Laboratory results reported in patent publication US20090203610A1, “METHODS OF TREATING OBESITY OR DIABETES USING NT-4/5” (RINAT NEUROSCIENCE CORPORATION, priority 2004, published 2009).

Tests used:
db/db mice [1] = test: Blood glucose levels in db/db mice (Example 1); format: in vivo; settings: NT-4/5 20 mg/kg s.c., Rosiglitazone 3 mg/kg p.o.
Experimental: Administration of NT-4/5 and reference substances: Rosiglitazone (3 mg/kg, Sequoia Research Products Ltd., UK), a thiazolidinedione compound for the therapy of type 2 diabetes, was used in the present experiment as a reference. Phosphate buffer saline was used as vehicle in this experiment. NT-4/5 was obtained from Genentech.
(§1) A difference was considered significant for p<0.05.

db/db mice [2] = test: HbA1c in db/db mice (Example 1); format: in vivo
Experimental: as §1
HbA1c levels were determined using an HbA1c kit (ref. 650262, Beckman Coulter, France) and a Synchron CX4 synchronizer. HbA1c is an indicator for blood glucose control over the last 2-3 months. The normal level of HbA1c in C57BL/6J mouse (determined by measuring 8 normal healthy C57BL/6J mice) was about 3.5%.

db/db mice [3] = test: Blood triglyceride levels in db/db mice (Example 1); format: in vivo; settings: NT-4/5 20 mg/kg s.c., Rosiglitazone 3 mg/kg p.o.
Experimental: Test animals: 24 female 10-12 weeks old db/db mice (C57BL/Ks J Rj-db/db, Janvier, France), weighing in the target range of 40-50 g, were used in this study. […] Upon receipt at animal facilities, they were housed 4 per cage covered with filtered caps and at least a 5-day acclimation period was observed.
(§2) The mice were divided into three groups of 8 mice each (groups 1-3). Each group was treated with vehicle (PBS) subcutaneously (s.c.), 3 mg/kg Rosiglitazone orally (p.o.), or 20 mg/kg NT-4/5 subcutaneously (s.c.). From day 1 to day 5 (T1-T5) and then from day 8 to day 12 (T8-T12), the mice in groups 2 and 3 were dosed once daily for 5 consecutive days, with a volume of 10 ml/kg.
Collection of samples for analysis: One day before beginning the treatment (T0), non fasted db/db mice were weighed and blood samples were collected through the retro-orbital plexus (about 300 μL/mouse) under isoflurane anesthesia. Similarly, at day 5 (T5), day 12 (T12), day 19 (T19) and day 26 (T26), two hours after the last administration, blood samples were collected through the retro-orbital plexus under isoflurane anesthesia in non fasted mice. […] An aliquot of serum was used for measuring glucose levels, the remaining was frozen until use.
(§3) Analysis of blood samples in db/db mice: Pre- and post dose serum levels of glucose, HbA1c, cholesterol and triglycerides, insulin, and non esterified fatty acids (NEFA), as well as aspirate amino-transferase (AST) and alanine amino-transferase activities (ALT) activities, were determined at different time points, as described further herein. At each time point and for each parameter, a mean % of the effect was calculated according to the following formula: ((T final−T initial)/T initial)*100. Statistical analysis was consistent in a one-way analysis of variance followed by multiple comparisons versus the vehicle group (Dunnett's test) on final values. In case the equal variance test fails, a Kruskall-Wallis one-way analysis of variance on ranks was conducted. A difference was considered significant for p<0.05.

db/db mice [4] = test: Total blood cholesterol levels in db/db mice (Example 1); format: in vivo; settings: NT-4/5 20 mg/kg s.c., Rosiglitazone 3 mg/kg p.o.
Experimental: as §1
The blood triglyceride level and the total blood cholesterol level were determined with a triglyceride assay kit (ref 445850, Beckman Coutler, France) and a total cholesterol kit (ref 467825, Beckman Coutler, France), respectively, using a Synchron CX4 analyzer.

db/db mice [5] = test: Serum nonesterified fatty acids (NEFA) in db/db mice (Example 1); format: in vivo; settings: NT-4/5 20 mg/kg s.c., Rosiglitazone 3 mg/kg p.o.
Experimental: as §1
Serum nonesterified fatty acids (NEFA) levels were determined by calorimetric method using a non esterified fatty acids kit (ref. FA 15, Randox, France).

db/db mice [6] = test: Blood insulin level by ELISA in db/db mice (Example 1); format: in vivo; settings: NT-4/5 20 mg/kg s.c., Rosiglitazone 3 mg/kg p.o.
Experimental: as §1
The blood insulin level was determined by ELISA using an Insulin ELIT Plus kit (ref. INSRAT01-8N, Eurobio, France).

db/db mice [7] = test: Body weight of db/db mice (Example 1); format: in vivo; settings: NT-4/5 20 mg/kg s.c., Rosiglitazone 3 mg/kg p.o.
Experimental: Throughout the experiment period (T1-T26), daily individual body weights as well as food intake per cage were measured.

db/db mice [8] = test: Serum transaminase (AST, ALT) activity in db/db mice (Example 1); settings: NT-4/5 20 mg/kg s.c., Rosiglitazone 3 mg/kg p.o.
Experimental: Test animals: 24 female 10-12 weeks old db/db mice (C57BL/Ks J Rj-db/db, Janvier, France), weighing in the target range of 40-50 g, were used in this study. These mice were housed in a temperature (19.5-24.5° C.) and relative humidity (45-65%) controlled room with a 12-hour light/dark cycle, with ad libitum access to filtered tap-water and irradiated pelleted laboratory chow (SAFE, France) throughout the study. Upon receipt at animal facilities, they were housed 4 per cage covered with filtered caps and at least a 5-day acclimation period was observed.
as §2
Collection of samples for analysis: One day before beginning the treatment (T0), non fasted db/db mice were weighed and blood samples were collected through the retro-orbital plexus (about 300 μL/mouse) under isoflurane anesthesia. Similarly, at day 5 (T5), day 12 (T12), day 19 (T19) and day 26 (T26), two hours after the last administration, blood samples were collected through the retro-orbital plexus under isoflurane anesthesia in non fasted mice.
as §3
Aspartate amino-transferase (AST) and alanine amino-transferase (ALT) activities were determined with an AST kit (ref. 442665, Beckman Coulter, France), an ALT kit (ref. 442620, Beckman Coulter, France), using a Synchron CX4 analyzer.

CN(CCOc1ccc(CC2SC(=O)NC2=O)cc1)c1ccccn1 (stereo not drawn) [Rosiglitazone, reference compound]
blood glucose levels T0 (db/db mice [1]; day 0, before treatment): 37.56 mM | blood glucose % effect T5-T0 (db/db mice [1]; day 5 vs day 0): −40.5% | blood glucose levels T12 (db/db mice [1]; day 12): 22.24 mM | blood glucose % effect T12-T0 (db/db mice [1]; day 12 vs day 0): −40.9% | blood glucose levels T19 (db/db mice [1]; day 19 (dosing stopped day 12)): 33.74 mM | blood glucose % effect T19-T0 (db/db mice [1]; day 19 vs day 0): −9.0% | blood glucose levels T26 (db/db mice [1]; day 26 (dosing stopped day 12)): 43.60 mM | blood glucose % effect T26-T0 (db/db mice [1]; day 26 vs day 0): 17.5% | HbA1c level decrease at T12 (db/db mice [2]; T12 vs T0): 1% | HbA1c level decrease at T26 (db/db mice [2]; T26 as compared to T0): 9.6% | HbA1c T0 (db/db mice [2]; day 0, before treatment, NT-4/5 20 mg/kg s.c., Rosiglitazone 3 mg/kg p.o.): 5.74% | HbA1c T12 (db/db mice [2]; day 12, NT-4/5 20 mg/kg s.c., Rosiglitazone 3 mg/kg p.o.): 5.69% | HbA1c % effect T12-T0 (db/db mice [2]; day 12 vs day 0, NT-4/5 20 mg/kg s.c., Rosiglitazone 3 mg/kg p.o.): −1.0% | HbA1c T26 (db/db mice [2]; day 26, NT-4/5 20 mg/kg s.c., Rosiglitazone 3 mg/kg p.o.): 5.18% | HbA1c % effect T26-T0 (db/db mice [2]; day 26 vs day 0, NT-4/5 20 mg/kg s.c., Rosiglitazone 3 mg/kg p.o.): −9.6% | triglycerides levels T0 (db/db mice [3]; day 0, before treatment): 1.39 mM | triglycerides levels T5 (db/db mice [3]; day 5): 0.81 mM | triglycerides % effect T5-T0 (db/db mice [3]; day 5 vs day 0): −30.1% | triglycerides levels T12 (db/db mice [3]; day 12): 0.61 mM | triglycerides % effect T12-T0 (db/db mice [3]; day 12 vs day 0): −51.0% | triglycerides levels T19 (db/db mice [3]; day 19): 0.64 mM | triglycerides % effect T19-T0 (db/db mice [3]; day 19 vs day 0): −46.1% | triglycerides levels T26 (db/db mice [3]; day 26): 1.58 mM | triglycerides % effect T26-T0 (db/db mice [3]; day 26 vs day 0): 23.4% | cholesterol levels T0 (db/db mice [4]; day 0, before treatment): 3.27 mM | cholesterol levels T5 (db/db mice [4]; day 5): 3.48 mM | cholesterol % effect T5-T0 (db/db mice [4]; day 5 vs day 0): 6.5% | cholesterol levels T12 (db/db mice [4]; day 12): 3.25 mM | cholesterol % effect T12-T0 (db/db mice [4]; day 12 vs day 0): −0.3% | cholesterol levels T19 (db/db mice [4]; day 19): 3.01 mM | cholesterol % effect T19-T0 (db/db mice [4]; day 19 vs day 0): −7.5% | cholesterol levels T26 (db/db mice [4]; day 26): 3.05 mM | cholesterol % effect T26-T0 (db/db mice [4]; day 26 vs day 0): −6.7% | NEFA levels T0 (db/db mice [5]; day 0, before treatment): 0.782 mM | NEFA levels T5 (db/db mice [5]; day 5): 0.507 mM | NEFA % effect T5-T0 (db/db mice [5]; day 5 vs day 0): −32.8% | NEFA levels T12 (db/db mice [5]; day 12): 0.444 mM | NEFA % effect T12-T0 (db/db mice [5]; day 12 vs day 0): −39.9% | NEFA levels T19 (db/db mice [5]; day 19): 0.739 mM | NEFA % effect T19-T0 (db/db mice [5]; day 19 vs day 0): −2.2% | NEFA levels T26 (db/db mice [5]; day 26): 0.345 mM | NEFA % effect T26-T0 (db/db mice [5]; day 26 vs day 0): −53.7% | insulin levels T0 (db/db mice [6]; day 0, before treatment): 6.93 nM | insulin levels T5 (db/db mice [6]; day 5): 3.94 nM | insulin % effect T5-T0 (db/db mice [6]; day 5 vs day 0): −37.0% | insulin levels T12 (db/db mice [6]; day 12): 2.85 nM | insulin % effect T12-T0 (db/db mice [6]; day 12 vs day 0): −51.8% | insulin levels T19 (db/db mice [6]; day 19): 7.30 nM | insulin % effect T19-T0 (db/db mice [6]; day 19 vs day 0): 14.4% | insulin levels T26 (db/db mice [6]; day 26): 6.33 nM | insulin % effect T26-T0 (db/db mice [6]; day 26 vs day 0): −5.7% | body weight, mean (db/db mice [7]; Day 0): 42.3 g | body weight expressed as % of baseline, mean (db/db mice [7]; Day 1): 98.3 % of baseline | body weight, mean (db/db mice [7]; Day 1): 41.6 g | body weight expressed as % of baseline, mean (db/db mice [7]; Day 2): 99.5 % of baseline | body weight, mean (db/db mice [7]; Day 2): 42.1 g | body weight expressed as % of baseline, mean (db/db mice [7]; Day 3): 100.0 % of baseline | body weight, mean (db/db mice [7]; Day 3): 42.3 g | body weight expressed as % of baseline, mean (db/db mice [7]; Day 4): 100.8 % of baseline | body weight, mean (db/db mice [7]; Day 4): 42.7 g | body weight expressed as % of baseline, mean (db/db mice [7]; Day 5): 102.2 % of baseline | body weight, mean (db/db mice [7]; Day 5): 43.3 g | body weight expressed as % of baseline, mean (db/db mice [7]; Day 6): 100.6 % of baseline | body weight, mean (db/db mice [7]; Day 6): 42.6 g | body weight expressed as % of baseline, mean (db/db mice [7]; Day 7): 101.1 % of baseline | body weight, mean (db/db mice [7]; Day 7): 42.8 g | body weight expressed as % of baseline, mean (db/db mice [7]; Day 8): 102.3 % of baseline | body weight, mean (db/db mice [7]; Day 8): 43.3 g | body weight expressed as % of baseline, mean (db/db mice [7]; Day 9): 103.8 % of baseline | body weight, mean (db/db mice [7]; Day 9): 43.9 g | body weight expressed as % of baseline, mean (db/db mice [7]; Day 10): 104.2 % of baseline | body weight, mean (db/db mice [7]; Day 10): 44.1 g | body weight expressed as % of baseline, mean (db/db mice [7]; Day 11): 104.9 % of baseline | body weight, mean (db/db mice [7]; Day 11): 44.4 g | body weight expressed as % of baseline, mean (db/db mice [7]; Day 12): 106.3 % of baseline | body weight, mean (db/db mice [7]; Day 12): 45.0 g | body weight expressed as % of baseline, mean (db/db mice [7]; Day 13): 104.9 % of baseline | body weight, mean (db/db mice [7]; Day 13): 44.4 g | body weight expressed as % of baseline, mean (db/db mice [7]; Day 14): 105.1 % of baseline | body weight, mean (db/db mice [7]; Day 14): 44.5 g | body weight expressed as % of baseline, mean (db/db mice [7]; Day 15): 104.9 % of baseline | body weight, mean (db/db mice [7]; Day 15): 44.4 g | body weight expressed as % of baseline, mean (db/db mice [7]; Day 18): 105.5 % of baseline | body weight, mean (db/db mice [7]; Day 18): 44.7 g | body weight expressed as % of baseline, mean (db/db mice [7]; Day 19): 106.0 % of baseline | body weight, mean (db/db mice [7]; Day 19): 44.9 g | body weight expressed as % of baseline, mean (db/db mice [7]; Day 20): 104.3 % of baseline | body weight, mean (db/db mice [7]; Day 20): 44.2 g | body weight expressed as % of baseline, mean (db/db mice [7]; Day 21): 105.3 % of baseline | body weight, mean (db/db mice [7]; Day 21): 44.6 g | body weight expressed as % of baseline, mean (db/db mice [7]; Day 22): 105.1 % of baseline | body weight, mean (db/db mice [7]; Day 22): 44.5 g | body weight expressed as % of baseline, mean (db/db mice [7]; Day 25): 106.7 % of baseline | body weight, mean (db/db mice [7]; Day 25): 45.2 g | body weight expressed as % of baseline, mean (db/db mice [7]; Day 26): 106.9 % of baseline | body weight, mean (db/db mice [7]; Day 26): 45.3 g | ALT T0 (db/db mice [8]; day 0, before treatment): 157.5 IU/L | ALT/AST ratio T0 (db/db mice [8]; day 0, before treatment): 1.00 | AST T0 (db/db mice [8]; day 0, before treatment): 185.8 IU/L | ALT T5 (db/db mice [8]; day 5): 172.3 IU/L | ALT/AST ratio T5 (db/db mice [8]; day 5): 1.03 | AST T5 (db/db mice [8]; day 5): 174.0 IU/L | ALT % effect T5-T0 (db/db mice [8]; day 5 vs day 0): 12.7% | ALT/AST ratio % effect T5-T0 (db/db mice [8]; day 5 vs day 0): 16.4% | AST % effect T5-T0 (db/db mice [8]; day 5 vs day 0): 8.2% | ALT T12 (db/db mice [8]; day 12): 222.0 IU/L | ALT/AST ratio T12 (db/db mice [8]; day 12): 1.13 | AST T12 (db/db mice [8]; day 12): 200.5 IU/L | ALT % effect T12-T0 (db/db mice [8]; day 12 vs day 0): 43.6% | ALT/AST ratio % effect T12-T0 (db/db mice [8]; day 12 vs day 0): 30.4% | AST % effect T12-T0 (db/db mice [8]; day 12 vs day 0): 19.9% | ALT T19 (db/db mice [8]; day 19): 179.0 IU/L | ALT/AST ratio T19 (db/db mice [8]; day 19): 1.31 | AST T19 (db/db mice [8]; day 19): 148.5 IU/L | ALT % effect T19-T0 (db/db mice [8]; day 19 vs day 0): 16.6% | ALT/AST ratio % effect T19-T0 (db/db mice [8]; day 19 vs day 0): 52.2% | AST % effect T19-T0 (db/db mice [8]; day 19 vs day 0): −6.9% | ALT T26 (db/db mice [8]; day 26): 144.3 IU/L | ALT/AST ratio T26 (db/db mice [8]; day 26): 1.05 | AST T26 (db/db mice [8]; day 26): 143.0 IU/L | ALT % effect T26-T0 (db/db mice [8]; day 26 vs day 0): −10.1% | ALT/AST ratio % effect T26-T0 (db/db mice [8]; day 26 vs day 0): 17.1% | AST % effect T26-T0 (db/db mice [8]; day 26 vs day 0): −13.8%
